Results taken from patent US11000033B2, “Ketone or oxime compound, and herbicide” (NISSAN CHEMICAL CORPORATION, priority 2014, dated 2021).

Tests used:
Type in all cases: in vivo
beet [1] = assay: Test Example 4: effect on crop by soil treatment (symbol f); conditions: for f: beet, effect grade on crop: 320 g/ha
How it was run: (§1)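 Crop seeds, among them rice, wheat, beet and rapeseed, were sown in sterilized diluvial soil and covered with about 1.5 cm of soil. Boxes were kept in a greenhouse at 25° C. to 30° C. for plant growth.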

rice plant = assay: Test Example 5: effect on crop by foliage application, plastic box (symbol b); conditions: 320 g/ha, 3 weeks after application
How it was run: (§2)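 Diluvial soil, sterilized and boxed (21 × 13 × 7 cm), received spot-sown seed covered by about 1.5 cm soil; plants were then greenhouse-grown at 25–30° C.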

wheat = assay: Test Example 4: effect on crop by soil treatment (symbol e); conditions: for e: wheat, effect grade on crop: 320 g/ha
How it was run: as §1

Galium spurium [2] = assay: Test Example 5: herbicidal effect by foliage application, plastic box (symbol Q); conditions: 320 g/ha, 3 weeks after application
How it was run: (§3)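 Visual herbicidal score, taken three weeks post-application, of seedlings sprayed on the foliage with water-diluted emulsion at a predetermined amount; plants were 14 days old, greenhouse-raised at 25° C. to 30° C.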

Monochoria vaginalis [3] = assay: Test Example 1: herbicidal activity, application before weed generation in submerged conditions (symbol C); conditions: application herbicide amount 320 g/ha
How it was run: (§4)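 Flooded alluvial soil (4 cm water) was mixed-sown with the three weed species, and 2.5-leaf rice seedlings were transplanted. On sowing day, a water-diluted emulsion at a predetermined rate was applied to the water surface. After 3 weeks in a 25–30 °C greenhouse, effect was scored 0–5.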

beet [4] = assay: Test Example 5: effect on crop by foliage application, plastic box (symbol f); conditions: 320 g/ha, 3 weeks after application
How it was run: as §2

Alopecurus myosuroides = assay: Test Example 5: herbicidal effect by foliage application, plastic box (symbol J); conditions: 320 g/ha, 3 weeks after application
How it was run: as §3

Lolium multiflorum Lam. = assay: Test Example 5: herbicidal effect by foliage application, plastic box (symbol K); conditions: 320 g/ha, 3 weeks after application
How it was run: as §3

Setaria viridis = assay: Test Example 4: herbicidal effect by soil treatment (symbol G); conditions: for G: Setaria viridis, herbicidal effect grade: 320 g/ha
How it was run: (§5)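 Seeds were sown in sterilized diluvial soil, covered with about 1.5 cm of soil, and the soil surface was sprayed with a water-diluted emulsion of the compound at a predetermined rate. Plants grew in a greenhouse at 25° C. to 30° C.; effects were scored visually 3 weeks after application.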

[5] = system: Echinochloa oryzacola Vasing.; assay: Test Example 1: herbicidal activity, application before weed generation in submerged conditions (symbol A); conditions: application herbicide amount 320 g/ha
How it was run: as §4

Galium spurium [6] = assay: Test Example 4: herbicidal effect by soil treatment (symbol Q); conditions: for Q: Galium spurium, herbicidal effect grade: 320 g/ha
How it was run: as §5

Amaranthus retroflexus = assay: Test Example 5: herbicidal effect by foliage application, plastic box (symbol N); conditions: 320 g/ha, 3 weeks after application
How it was run: as §3

Abutilon theophrasti = assay: Test Example 4: herbicidal effect by soil treatment (symbol M); conditions: for M: Abutilon theophrasti, herbicidal effect grade: 320 g/ha
How it was run: as §5

corn = assay: Test Example 4: effect on crop by soil treatment (symbol c); conditions: for c: corn, effect grade on crop: 320 g/ha
How it was run: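 Greenhouse culture at 25° C. to 30° C. followed sowing of seed in spots on sterilized diluvial soil with a soil cover close to 1.5 cm thick.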

[7] = system: Echinochloa oryzacola Vasing.; assay: Test Example 2: herbicidal activity, application during weed generation in submerged conditions (symbol A); conditions: Table 23; application herbicide amount 320 g/ha; grade 0-5 by criteria of Test Example 1
How it was run: (§6)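 Flooded-soil post-emergence test: emulsion of compound, water-diluted to target rate, applied to paddy water surface at 1–2 leaf stage of mixed-sown weeds (alluvial soil, 4 cm water, 25–30° C. greenhouse); visual rating 3 weeks after application.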

Monochoria vaginalis [8] = assay: Test Example 2: herbicidal activity, application during weed generation in submerged conditions (symbol C); conditions: Table 23; application herbicide amount 320 g/ha; grade 0-5 by criteria of Test Example 1
How it was run: as §6

Scirpus juncoides = assay: Test Example 2: herbicidal activity, application during weed generation in submerged conditions (symbol B); conditions: Table 23; application herbicide amount 320 g/ha; grade 0-5 by criteria of Test Example 1
How it was run: as §6

[9] = application herbicide amount 320 g/ha

SMILES | f: beet, effect grade on crop (beet [1]) | b: directly sowed rice plant, effect on crop (criteria 0-5) (rice plant) | e: wheat, effect grade on crop (wheat) | Q: Galium spurium, herbicidal effect (criteria 0-5) (Galium spurium [2]) | Herbicidal effect grade, C: Monochoria vaginalis (Monochoria vaginalis [3]) | f: beet, effect on crop (criteria 0-5) (beet [4]) | J: Alopecurus myosuroides, herbicidal effect (criteria 0-5) (Alopecurus myosuroides) | K: Lolium multiflorum Lam., herbicidal effect (criteria 0-5) (Lolium multiflorum Lam.) | G: Setaria viridis, herbicidal effect grade (Setaria viridis) | Herbicidal effect grade, A: Echinochloa oryzacola Vasing. [5] | Q: Galium spurium, herbicidal effect grade (Galium spurium [6]) | N: Amaranthus retroflexus, herbicidal effect (criteria 0-5) (Amaranthus retroflexus) | M: Abutilon theophrasti, herbicidal effect grade (Abutilon theophrasti) | c: corn, effect grade on crop (corn) | Herbicidal effect grade, A: Echinochloa oryzacola Vasing. [7] | Herbicidal effect grade, C: Monochoria vaginalis (Monochoria vaginalis [8]) | Herbicidal effect grade, B: Scirpus juncoides (Scirpus juncoides) | other results
CC(CC1CC(OC(=O)N2CCOCC2)=C(c2c(C)cc(-c3ccc(Cl)cc3)cc2C)C1=O)=NOCC(F)(F)F (mixture of isomers) [9-025] |  |  |  |  |  |  |  |  |  |  |  |  |  |  |  |  |  | Effect on crop grade, f: beet (beet [1]; [9]): 0 (Herbicidal ratio of 5% or lower (almost no effect)); b: directly sowed rice plant, effect on crop grade (rice plant): 0 (Herbicidal ratio of 5% or lower (almost no effect)); Effect on crop grade, e: wheat (wheat; [9]): 0 (Herbicidal ratio of 5% or lower (almost no effect)); Q: Galium spurium, herbicidal effect grade (Galium spurium [2]): 0 (Herbicidal ratio of 5% or lower (almost no effect)); C (Monochoria vaginalis) herbicidal effect grade (Monochoria vaginalis [3]): 1 (Herbicidal ratio of 5% or higher and lower than 20%); f: beet, effect on crop grade (beet [4]): 0 (Herbicidal ratio of 5% or lower (almost no effect)); J: Alopecurus myosuroides, herbicidal effect grade (Alopecurus myosuroides): 0 (Herbicidal ratio of 5% or lower (almost no effect)); K: Lolium multiflorum Lam., herbicidal effect grade (Lolium multiflorum Lam.): 0 (Herbicidal ratio of 5% or lower (almost no effect)); Herbicidal effect grade, G: Setaria viridis (Setaria viridis; [9]): 0 (Herbicidal ratio of 5% or lower (almost no effect)); A (Echinochloa oryzacola Vasing.) herbicidal effect grade [5]: 5 (Herbicidal ratio of 90% or more (almost completely withered)); Herbicidal effect grade, Q: Galium spurium (Galium spurium [6]; [9]): 0 (Herbicidal ratio of 5% or lower (almost no effect)); N: Amaranthus retroflexus, herbicidal effect grade (Amaranthus retroflexus): 0 (Herbicidal ratio of 5% or lower (almost no effect)); Herbicidal effect grade, M: Abutilon theophrasti (Abutilon theophrasti; [9]): 0 (Herbicidal ratio of 5% or lower (almost no effect)); Effect on crop grade, c: corn (corn; [9]): 0 (Herbicidal ratio of 5% or lower (almost no effect))
CON=C(C)CC1CC(OC(=O)N(C)CCCCCl)=C(c2c(C)cc(C)cc2C)C1=O (centres unmarked) [1-126] | 0 (Herbicidal ratio of 5% or lower (almost no effect)) | 4 (Herbicidal ratio of 70% or higher and lower than 90%) | 0 (Herbicidal ratio of 5% or lower (almost no effect)) | 0 (Herbicidal ratio of 5% or lower (almost no effect)) | 0 (Herbicidal ratio of 5% or lower (almost no effect)) | 0 (Herbicidal ratio of 5% or lower (almost no effect)) | 5 (Herbicidal ratio of 90% or more (almost completely withered)) | 5 (Herbicidal ratio of 90% or more (almost completely withered)) | 0 (Herbicidal ratio of 5% or lower (almost no effect)) | 4 (Herbicidal ratio of 70% or higher and lower than 90%) | 0 (Herbicidal ratio of 5% or lower (almost no effect)) | 0 (Herbicidal ratio of 5% or lower (almost no effect)) | 0 (Herbicidal ratio of 5% or lower (almost no effect)) | 0 (Herbicidal ratio of 5% or lower (almost no effect)) |  |  |  | 
CC(CC1CC(O)=C(c2c(C)cc(C)cc2C)C1=O)=NOCc1ccccc1[N+](=O)[O-] (centres unmarked) [1-119] | 0 (Herbicidal ratio of 5% or lower (almost no effect)) | 5 (Herbicidal ratio of 90% or more (almost completely withered)) | 0 (Herbicidal ratio of 5% or lower (almost no effect)) | 0 (Herbicidal ratio of 5% or lower (almost no effect)) | 0 (Herbicidal ratio of 5% or lower (almost no effect)) | 0 (Herbicidal ratio of 5% or lower (almost no effect)) | 5 (Herbicidal ratio of 90% or more (almost completely withered)) | 5 (Herbicidal ratio of 90% or more (almost completely withered)) | 4 (Herbicidal ratio of 70% or higher and lower than 90%) | 1 (Herbicidal ratio of 5% or higher and lower than 20%) | 0 (Herbicidal ratio of 5% or lower (almost no effect)) | 0 (Herbicidal ratio of 5% or lower (almost no effect)) | 0 (Herbicidal ratio of 5% or lower (almost no effect)) | 0 (Herbicidal ratio of 5% or lower (almost no effect)) |  |  |  | 
CON=C(C)CC1CC(OC(=O)c2cnoc2C2CC2)=C(c2c(C)cc(C)cc2C)C1=O (centres unmarked) [1-103] | 0 (Herbicidal ratio of 5% or lower (almost no effect)) | 5 (Herbicidal ratio of 90% or more (almost completely withered)) | 4 (Herbicidal ratio of 70% or higher and lower than 90%) |  | 1 (Herbicidal ratio of 5% or higher and lower than 20%) | 0 (Herbicidal ratio of 5% or lower (almost no effect)) | 5 (Herbicidal ratio of 90% or more (almost completely withered)) | 5 (Herbicidal ratio of 90% or more (almost completely withered)) | 5 (Herbicidal ratio of 90% or more (almost completely withered)) | 5 (Herbicidal ratio of 90% or more (almost completely withered)) | 0 (Herbicidal ratio of 5% or lower (almost no effect)) | 0 (Herbicidal ratio of 5% or lower (almost no effect)) | 5 (Herbicidal ratio of 90% or more (almost completely withered)) | 5 (Herbicidal ratio of 90% or more (almost completely withered)) | 5 (Herbicidal ratio of 90% or more (almost completely withered)) | 0 (Herbicidal ratio of 5% or lower (almost no effect)) | 4 (Herbicidal ratio of 70% or higher and lower than 90%) | 
CON=C(C)CC1CC(OC(=O)N(C)C)=C(c2c(C)cc(C)cc2C)C1=O (centres unmarked) [1-108] | 0 (Herbicidal ratio of 5% or lower (almost no effect)) | 5 (Herbicidal ratio of 90% or more (almost completely withered)) | 4 (Herbicidal ratio of 70% or higher and lower than 90%) |  | 3 (Herbicidal ratio of 40% or higher and lower than 70%) | 1 (Herbicidal ratio of 5% or higher and lower than 20%) | 5 (Herbicidal ratio of 90% or more (almost completely withered)) | 5 (Herbicidal ratio of 90% or more (almost completely withered)) | 5 (Herbicidal ratio of 90% or more (almost completely withered)) | 5 (Herbicidal ratio of 90% or more (almost completely withered)) | 0 (Herbicidal ratio of 5% or lower (almost no effect)) | 5 (Herbicidal ratio of 90% or more (almost completely withered)) | 4 (Herbicidal ratio of 70% or higher and lower than 90%) | 5 (Herbicidal ratio of 90% or more (almost completely withered)) | 5 (Herbicidal ratio of 90% or more (almost completely withered)) | 1 (Herbicidal ratio of 5% or higher and lower than 20%) | 3 (Herbicidal ratio of 40% or higher and lower than 70%) | 
